# Patent US12410171B2, “Tropomyosin receptor kinase (TRK) degradation compounds and methods of use” (Cullgen (Shanghai), Inc., priority 2020, dated 2025)
# Biological target: T1, TPM3-TRKA fusion protein (Homo sapiens, UniProt P04629)
# T1 construct: The resulted chimeric proteins always retain the kinase domain of TRK proteins; TPM3 (fusion partner, N-terminal part of tropomyosin alpha-3, P06753); endogenous in cells; host or cells: KM12 colon cancer cells; the other entry of the earlier key: TPM3 (P06753, Tropomyosin alpha-3 chain)
# T1 sequence (P04629 with tags, fused parts or gaps): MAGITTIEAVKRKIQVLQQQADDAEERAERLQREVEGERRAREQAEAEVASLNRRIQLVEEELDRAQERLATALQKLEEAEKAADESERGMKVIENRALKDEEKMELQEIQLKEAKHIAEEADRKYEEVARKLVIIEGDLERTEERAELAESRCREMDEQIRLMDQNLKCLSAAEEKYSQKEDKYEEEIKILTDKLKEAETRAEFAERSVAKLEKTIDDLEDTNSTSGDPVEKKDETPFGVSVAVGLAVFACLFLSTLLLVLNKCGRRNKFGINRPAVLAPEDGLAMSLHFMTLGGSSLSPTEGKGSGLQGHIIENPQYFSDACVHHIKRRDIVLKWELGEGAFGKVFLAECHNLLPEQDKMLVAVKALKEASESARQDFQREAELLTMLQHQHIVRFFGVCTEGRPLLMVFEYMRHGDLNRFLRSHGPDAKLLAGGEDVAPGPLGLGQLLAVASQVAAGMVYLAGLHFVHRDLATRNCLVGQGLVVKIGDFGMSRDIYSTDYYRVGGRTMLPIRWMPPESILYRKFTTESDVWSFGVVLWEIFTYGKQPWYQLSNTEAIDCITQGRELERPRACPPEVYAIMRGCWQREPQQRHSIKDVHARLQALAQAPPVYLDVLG
# Test: TPM3-TRKA fusion protein levels in KM12 cells (Western blot)
# Format: cell-based
# Conditions: 16 h; TPM3-TRKA degradation in KM12 cells at 10 nM compound, category of percentage degradation; read-out: Degradation (at 10 nM)
# Outline: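 TPM3-TRKA levels were assessed by Western blot with chemiluminescent detection and band densitometry, after SDS-PAGE of BCA-normalized RIPA lysates. Before lysis, KM12 cells received DMSO, compounds or matched control compounds at concentrations including 0.1, 1, 10 and 100 nM and 0.4–30 nM. Exposures lasted 4 h, 8–16 h or 16 h.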
row,SMILES,percent degradation of TPM3-TRKA protein at 0.01 µM
1,"O=C(CN1CCN(c2cccc(-c3cnc4ccc(N5CCC[C@@H]5c5cccc(F)c5)nn34)n2)CC1)NCCOCCOCCOCCOCCNc1cccc2c1C(=O)N(C1CCC(=O)NC1=O)C2=O (stereo partly drawn) [TR-108, N-(14-((2-(2,6-dioxopiperidin-3-yl)-1,3-dioxoisoindolin-4-yl)amino)-3,6,9,12-tetraoxatetradecyl)-2-(4-(6-(6-((R)-2-(3-fluorophenyl)pyrrolidin-1-yl)imidazo[1,2-b]pyridazin-3-yl)pyridin-2-yl)piperazin-1-yl)acetamide]",> 80%
2,"O=C(CN1CCN(c2cccc(-c3cnc4ccc(N5CCC[C@@H]5c5cccc(F)c5)nn34)n2)CC1)NCCCNc1cccc2c1C(=O)N(C1CCC(=O)NC1=O)C2=O (stereo partly drawn) [TR-109, N-(3-((2-(2,6-dioxopiperidin-3-yl)-1,3-dioxoisoindolin-4-yl)amino)propyl)-2-(4-(6-(6-((R)-2-(3-fluorophenyl)pyrrolidin-1-yl)imidazo[1,2-b]pyridazin-3-yl)pyridin-2-yl)piperazin-1-yl)acetamide]",> 80%
3,"O=C1CCC(N2C(=O)c3ccc(NCCOCCOCCC(=O)N4CCN(c5cccc(-c6cnc7ccc(N8CCC[C@@H]8c8cccc(F)c8)nn67)n5)CC4)cc3C2=O)C(=O)N1 (stereo partly drawn) [TR-113, 2-(2,6-Dioxopiperidin-3-yl)-5-((2-(2-(3-(4-(6-(6-((R)-2˜ (3-fluorophenyl)pyrrolidin-1-yl)imidazo[1,2-b]pyridazin-3-yl)pyridin-2-yl)piperazin-1-yl)-3-oxopropoxy)ethoxy)ethyl)amino) isoindoline-1,3-dione]",> 80%
4,O=C1CCC(N2C(=O)c3ccc(NCCOCCOCCOCCOCCOCCC(=O)N4CCN(c5cccc(-c6cnc7ccc(N8CCC[C@@H]8c8cccc(F)c8)nn67)n5)CC4)cc3C2=O)C(=O)N1 (stereo partly shown) [TR-116],> 80%
5,"O=C1CCC(N2C(=O)c3ccc(NCCCCCCC(=O)N4CCN(c5cccc(-c6cnc7ccc(N8CCC[C@@H]8c8cccc(F)c8)nn67)n5)CC4)cc3C2=O)C(=O)N1 (stereo partly drawn) [TR-117, 2-(2,6-Dioxopiperidin-3-yl)-5-((7-(4-(6-(6-((R)-2-(3-fluorophenyl)pyrrolidin-1-yl)imidazo[1,2-b]pyridazin-3-yl)pyridin-2-yl)piperazin-1-yl)-7-oxoheptyl)amino) isoindoline-1,3-dione]",> 80%
6,"O=C1CCC(N2C(=O)c3ccc(NCCCCCCCC(=O)N4CCN(c5cccc(-c6cnc7ccc(N8CCC[C@@H]8c8cccc(F)c8)nn67)n5)CC4)cc3C2=O)C(=O)N1 (stereo partly drawn) [TR-118, 2-(2,6-Dioxopiperidin-3-yl)-5-((8-(4-(6-(6-((R)-2-(3-fluorophenyl)pyrrolidin-1-yl)imidazo[1,2-b]pyridazin-3-yl)pyridin-2-yl)piperazin-1-yl)-8-oxooctyl)amino) isoindoline-1,3-dione]",> 80%
7,"O=C1CCC(N2C(=O)c3ccc(NCCOCCC(=O)N4CCN(c5cccc(-c6cnc7ccc(N8CCC[C@@H]8c8cccc(F)c8)nn67)n5)CC4)cc3C2=O)C(=O)N1 (stereo partly drawn) [TR-119, 2-(2,6-Dioxopiperidin-3-yl)-5-((2-(3-(4-(6-(6-((R)-2-(3-fluorophenyl)pyrrolidin-1-yl)imidazo[1,2-b]pyridazin-3-yl)pyridin-2-yl)piperazin-1-yl)-3-oxopropoxy)ethyl)amino) isoindoline-1,3-dione]",> 80%
8,"O=C1CCC(N2C(=O)c3ccc(NCCOCCOCCOCCOCCC(=O)N4CCN(c5cccc(-c6cnc7ccc(N8CCC[C@@H]8c8cccc(F)c8)nn67)n5)CC4)cc3C2=O)C(=O)N1 (stereo partly drawn) [TR-120, 2-(2,6-Dioxopiperidin-3-yl)-5-((15-(4-(6-(6-((R)-2-(3-fluorophenyl)pyrrolidin-1-yl)imidazo[1,2-6]pyridazin-3-yl)pyridin-2-yl)piperazin-1-yl)-15-oxo-3,6,9,12-tetraoxapentadecyl)amino) isoindoline-1,3-dione]",> 80%
9,"O=C1CCC(N2C(=O)c3ccc(NCCC(=O)N4CCN(c5cccc(-c6cnc7ccc(N8CCC[C@@H]8c8cccc(F)c8)nn67)n5)CC4)cc3C2=O)C(=O)N1 (stereo partly drawn) [TR-121, 2-(2,6-Dioxopiperidin-3-yl)-5-((3-(4-(6-(6-((R)-2-(3-fluorophenyl)pyrrolidin-1-yl)imidazo[1,2-b]pyridazin-3-yl)pyridin-2-yl)piperazin-1-yl)-3-oxopropyl)amino) isoindoline-1,3-dione]",> 80%
10,"O=C1CCC(N2C(=O)c3ccc(NCCCCCC(=O)N4CCN(c5cccc(-c6cnc7ccc(N8CCC[C@@H]8c8cccc(F)c8)nn67)n5)CC4)cc3C2=O)C(=O)N1 (stereo partly drawn) [TR-122, 2-(2,6-Dioxopiperidin-3-yl)-5-((6-(4-(6-(6-((R)-2-(3-fluorophenyl)pyrrolidin-1-yl)imidazo[1,2-b]pyridazin-3-yl)pyridin-2-yl)piperazin-1-yl)-6-oxohexyl)amino) isoindoline-1,3-dione]",> 80%
11,"O=C(CN1CCN(c2cccc(-c3cnc4ccc(N5CCC[C@@H]5c5cccc(F)c5)nn34)n2)CC1)NCCCCNc1ccc2c(c1)C(=O)N(C1CCC(=O)NC1=O)C2=O (stereo partly drawn) [TR-124, N-(4-((2-(2,6-dioxopiperidin-3-yl)-1,3-dioxoisoindolin-S-yl)amino)butyl)-2-(4-(6-(6-((R)-2-(3-fluorophenyl)pyrrolidin-1-yl)imidazo[1,2-b]pyridazin-3-yl)pyridin-2-yl)piperazin-1-yl)acetamide]",> 80%
12,"O=C(CN1CCN(c2cccc(-c3cnc4ccc(N5CCC[C@@H]5c5cccc(F)c5)nn34)n2)CC1)NCCOCCOCCOCCOCCNc1ccc2c(c1)C(=O)N(C1CCC(=O)NC1=O)C2=O (stereo partly drawn) [TR-125, N-(14-((2-(2,6-dioxopiperidin-3-yl)-1,3-dioxoisoindolin-5-yl)amino)-3,6,9,12-tetraoxatetradecyl)-2-(4-(6-(6-((R)-2-(3-fluorophenyl)pyrrolidin-1-yl)imidazo[1,2-b]pyridazin-3-yl)pyridin-2-yl)piperazin-1-yl)acetamide]",> 80%
13,"O=C(CN1CCN(c2cccc(-c3cnc4ccc(N5CCC[C@@H]5c5cccc(F)c5)nn34)n2)CC1)NCCCNc1ccc2c(c1)C(=O)N(C1CCC(=O)NC1=O)C2=O (stereo partly drawn) [TR-127, N-(3-((2-(2,6-dioxopiperidin-3-yl)-1,3-dioxoisoindolin-S-yl)amino)propyl)-2-(4-(6-(6-((R)-2-(3-fluorophenyl)pyrrolidin-1-yl)imidazo[1,2-b]pyridazin-3-yl)pyridin-2-yl)piperazin-1-yl)acetamide]",> 80%
14,"O=C(CN1CCN(c2cccc(-c3cnc4ccc(N5CCC[C@@H]5c5cccc(F)c5)nn34)n2)CC1)NCCCCCCNc1ccc2c(c1)C(=O)N(C1CCC(=O)NC1=O)C2=O (stereo partly drawn) [TR-128, N-(6-((2-(2,6-dioxopiperidin-3-yl)-1,3-dioxoisoindolin-5-yl)amino)hexyl)-2-(4-(6-(6-((R)-2-(3-fluorophenyl)pyrrolidin-1-yl)imidazo[1,2-b]pyridazin-3-yl)pyridin-2-yl)piperazin-1-yl)acetamide]",> 80%
15,"O=C(CN1CCN(c2cccc(-c3cnc4ccc(N5CCC[C@@H]5c5cccc(F)c5)nn34)n2)CC1)NCCOCCOCCOCCNc1ccc2c(c1)C(=O)N(C1CCC(=O)NC1=O)C2=O (stereo partly drawn) [TR-129, N-(2-(2-(2-(2-((2-(2,6-dioxopiperidin-3-yl)-1,3-dioxoisoindolin-5-yl)amino)ethoxy)ethoxy)ethoxy)ethyl)-2-(4-(6-(6-((R)-2-(3-fluorophenyl)pyrrolidin-1-yl)imidazo[1,2-b]pyridazin-3-yl)pyridin-2-yl)piperazin-1-yl)acetamide]",> 80%
16,"O=C(CN1CCN(c2cccc(-c3cnc4ccc(N5CCC[C@@H]5c5cccc(F)c5)nn34)n2)CC1)NCCCCCNc1ccc2c(c1)C(=O)N(C1CCC(=O)NC1=O)C2=O (stereo partly drawn) [TR-131, N-(5-((2-(2,6-dioxopiperidin-3-yl)-1,3-dioxoisoindolin-5-yl)amino)pentyl)-2-(4-(6-(6-((R)-2-(3-fluorophenyl)pyrrolidin-1-yl)imidazo[1,2-b]pyridazin-3-yl)pyridin-2-yl)piperazin-1-yl)acetamide]",> 80%
17,"O=C(CN1CCN(c2cccc(-c3cnc4ccc(N5CCC[C@@H]5c5cccc(F)c5)nn34)n2)CC1)NCCOCCOCCOCCOCCOCCNc1ccc2c(c1)C(=O)N(C1CCC(=O)NC1=O)C2=O (stereo partly drawn) [TR-132, N-(17-((2-(2,6-dioxopiperidin-3-yl)-1,3-dioxoisoindolin-5-yl)amino)-3,6,9,12,15-pentaoxaheptadecyl)-2-(4-(6-(6-((R)-2-(3-fluorophenyl)pyrrolidin-1-yl)imidazo[1,2-b]pyridazin-3-yl)pyridin-2-yl)piperazin-1-yl)acetamide]",> 80%
18,"O=C(CN1CCN(c2cccc(-c3cnc4ccc(N5CCC[C@@H]5c5cccc(F)c5)nn34)n2)CC1)NCCOCCOCCNc1ccc2c(c1)C(=O)N(C1CCC(=O)NC1=O)C2=O (stereo partly drawn) [TR-134, N-(2-(2-(2-((2-(2,6-dioxopiperidin-3-yl)-1,3-dioxoisoindolin-5-yl)amino)ethoxy)ethoxy)ethyl)-2-(4-(6-(6-((R)-2-(3-fluorophenyl)pyrrolidin-1-yl)imidazo[1,2-b]pyridazin-3-yl)pyridin-2-yl)piperazin-1-yl)acetamide]",> 80%
19,"O=C1CCC(N2C(=O)c3ccc(NCCOCCOCCOCCOCCOCCC(=O)N4CCN(c5ccc(C(=O)Nc6n[nH]c7ccc(Cc8cc(F)cc(F)c8)cc67)c(NC6CCOCC6)c5)CC4)cc3C2=O)C(=O)N1 (stereo not shown) [TR-137, N-(5-(3,5-Difluorobenzyl)-1H-indazol-3-yl)-4-(4-(1-((2-(2,6-dioxopiperidin-3-yl)-1,3-dioxoisoindolin-5-yl)amino)-3,6,9, 12, 15-pentaoxaoctadecan-18-oyl)piperazin-1-yl)-2-((tetrahydro-2H-pyran-4-yl)amino)benzamide]",> 80%
